Counter-ions that a name gives are not always drawn. A value given as a limit tells only on which side of the number the result lay.

One assay concerns Ebola virus. Nature of the assay: microbe, parasite or virus in culture. It is filed as cell-based, Ebolavirus (EBOV). The settings on record: Zaire ebolavirus, Vero.
Consider `CO[C@H]1C[C@H](O[C@H]2CC[C@]3(C=O)[C@H]4CC[C@]5(C)[C@@H](C6=CC(=O)OC6)CC[C@]5(O)[C@@H]4CC[C@]3(O)C2)O[C@H](C)[C@H]1O` [K-Strophanthin], for which the IC50 (commonly the concentration at which inhibition is half-maximal) is less than 0.5 µM.

Compound `O=c1[nH]c2ccccc2n1C1CCN(CCCC(c2ccc(F)cc2)c2ccc(F)cc2)CC1` [Pimozide] displayed an IC50 of 4.8 µM.

In turn, `CCN(CC)CCNc1ccc(CO)c2sc3ccccc3c(=O)c12` [Hycanthone] came in with an IC50 of 10.4 µM.

In turn, `COc1ccc(CN2CCN(C(c3ccc(F)cc3)c3ccc(F)cc3)CC2)c(OC)c1OC` [Lomerizine Dihydrochloride] had an IC50 of 10.1 µM.

For `Fc1ccc([C@@H]2CCNC[C@H]2COc2ccc3c(c2)OCO3)cc1` [Paroxetine Hydrochloride Hemihydrate], half-maximal inhibition (IC50) was put at 9.3 µM.

Still in this assay, the particulars now being: Zaire ebolavirus, Vero, read-out: IC50 (μM) Vero.
For `Cc1nc(Nc2ncc(C(=O)Nc3c(C)cccc3Cl)s2)cc(N2CCN(CCO)CC2)n1` [Dasatinib], the IC50 stood at 16 µM.

Turning to `CO[C@H]1C[C@H](O[C@H]2CC[C@]3(C=O)[C@H]4CC[C@]5(C)[C@@H](C6=CC(=O)OC6)CC[C@]5(O)[C@@H]4CC[C@]3(O)C2)O[C@H](C)[C@H]1O` [K-Strophanthin], the 50% inhibitory concentration (IC50) was 0.035 µM.

For the compound `O=c1[nH]c2ccccc2n1C1CCN(CCCC(c2ccc(F)cc2)c2ccc(F)cc2)CC1` [Pimozide], the IC50 was determined as 3.1 µM.

On to `CCN(CC)CCNc1ccc(CO)c2sc3ccccc3c(=O)c12` [Hycanthone], for which the concentration for half-maximal inhibition (IC50) turned out to be 11 µM.

Take `COc1ccc(CN2CCN(C(c3ccc(F)cc3)c3ccc(F)cc3)CC2)c(OC)c1OC` [Lomerizine Dihydrochloride]: the IC50 was 11 µM.

Regarding `Fc1ccc([C@@H]2CCNC[C@H]2COc2ccc3c(c2)OCO3)cc1` [Paroxetine Hydrochloride Hemihydrate], the IC50 was 7.4 µM.

The same assay, now with this note: Zaire ebolavirus, Vero, read-out: Max Effect.
Consider `Cc1nc(Nc2ncc(C(=O)Nc3c(C)cccc3Cl)s2)cc(N2CCN(CCO)CC2)n1` [Dasatinib], for which the Emax worked out at 42.8%.

Consider `CN1CCN(CCCN2c3ccccc3Sc3ccc(Cl)cc32)CC1` [Prochlorperazine Edisylate], for which the Emax came out at 89%.

Turning to `CO[C@H]1C[C@H](O[C@H]2CC[C@]3(C=O)[C@H]4CC[C@]5(C)[C@@H](C6=CC(=O)OC6)CC[C@]5(O)[C@@H]4CC[C@]3(O)C2)O[C@H](C)[C@H]1O` [K-Strophanthin], the Emax came to 90%.

In the case of `CCN(CC)CCOc1ccc(/C(=C(\Cl)c2ccccc2)c2ccccc2)cc1` [Clomiphene Citrate], the Emax turned out to be 91.2%.

Take `O=c1[nH]c2ccccc2n1C1CCN(CCCC(c2ccc(F)cc2)c2ccc(F)cc2)CC1` [Pimozide]: the Emax was found to be 68.5%.

Turning to `CCN(CC)CCNc1ccc(CO)c2sc3ccccc3c(=O)c12` [Hycanthone], the Emax worked out at 59.7%.

For `COc1ccc(CN2CCN(C(c3ccc(F)cc3)c3ccc(F)cc3)CC2)c(OC)c1OC` [Lomerizine Dihydrochloride], the Emax turned out to be 66.5%.

In the case of `CN(C)CCCN1c2ccccc2CCc2ccc(Cl)cc21` [Clomipramine Hydrochloride], the Emax stood at 58.5%.

`COc1ccc(CCN2CCC(Nc3nc4ccccc4n3Cc3ccc(F)cc3)CC2)cc1` [Astemizole]: the Emax was 83.5%.

Consider `CN1[C@@H]2CC[C@H]1C[C@@H](OC(c1ccccc1)c1ccccc1)C2` [Benztropine Mesylate], for which the Emax came out at 63.3%.

Take `CN[C@H]1CC[C@@H](c2ccc(Cl)c(Cl)c2)c2ccccc21` [Sertraline Hydrochloride]: the Emax was 41.8%.

Consider `Fc1ccc([C@@H]2CCNC[C@H]2COc2ccc3c(c2)OCO3)cc1` [Paroxetine Hydrochloride Hemihydrate], for which the Emax amounted to 82%.

Staying with this assay, now noted: Zaire ebolavirus, Vero, read-out: Max Effect Vero.
`Cc1nc(Nc2ncc(C(=O)Nc3c(C)cccc3Cl)s2)cc(N2CCN(CCO)CC2)n1` [Dasatinib]: the Emax worked out at 64.2%.

On to `CN1CCN(CCCN2c3ccccc3Sc3ccc(Cl)cc32)CC1` [Prochlorperazine Edisylate], for which the Emax came to 96.3%.

For `CO[C@H]1C[C@H](O[C@H]2CC[C@]3(C=O)[C@H]4CC[C@]5(C)[C@@H](C6=CC(=O)OC6)CC[C@]5(O)[C@@H]4CC[C@]3(O)C2)O[C@H](C)[C@H]1O` [K-Strophanthin], the Emax turned out to be 74.2%.

For `CCN(CC)CCOc1ccc(/C(=C(\Cl)c2ccccc2)c2ccccc2)cc1` [Clomiphene Citrate], the Emax was found to be 96.4%.

As to `O=c1[nH]c2ccccc2n1C1CCN(CCCC(c2ccc(F)cc2)c2ccc(F)cc2)CC1` [Pimozide], the Emax was found to be 96.8%.

Turning to `CCN(CC)CCNc1ccc(CO)c2sc3ccccc3c(=O)c12` [Hycanthone], the Emax amounted to 96.8%.

On to `COc1ccc(CN2CCN(C(c3ccc(F)cc3)c3ccc(F)cc3)CC2)c(OC)c1OC` [Lomerizine Dihydrochloride], for which the Emax is 89.9%.

For `CN(C)CCCN1c2ccccc2CCc2ccc(Cl)cc21` [Clomipramine Hydrochloride], the Emax came to 96.1%.

For the compound `COc1ccc(CCN2CCC(Nc3nc4ccccc4n3Cc3ccc(F)cc3)CC2)cc1` [Astemizole], the Emax is 96.5%.

As to `CN1[C@@H]2CC[C@H]1C[C@@H](OC(c1ccccc1)c1ccccc1)C2` [Benztropine Mesylate], the Emax amounted to 89.9%.

On to `CN[C@H]1CC[C@@H](c2ccc(Cl)c(Cl)c2)c2ccccc21` [Sertraline Hydrochloride], for which the Emax was 96.2%.

As to `Fc1ccc([C@@H]2CCNC[C@H]2COc2ccc3c(c2)OCO3)cc1` [Paroxetine Hydrochloride Hemihydrate], the Emax was found to be 96%.

Another assay relates to Ebola virus. Description: microbe, parasite or virus in culture. The format is cell-based, Ebolavirus (EBOV). The settings on record: Zaire ebolavirus, HepG2, read-out: IC50 (μM) HepG2.
As for `Cc1nc(Nc2ncc(C(=O)Nc3c(C)cccc3Cl)s2)cc(N2CCN(CCO)CC2)n1` [Dasatinib], the IC50 was determined as 4.2 µM.

In the case of `CO[C@H]1C[C@H](O[C@H]2CC[C@]3(C=O)[C@H]4CC[C@]5(C)[C@@H](C6=CC(=O)OC6)CC[C@]5(O)[C@@H]4CC[C@]3(O)C2)O[C@H](C)[C@H]1O` [K-Strophanthin], the half-inhibitory concentration (IC50) turned out to be 0.021 µM.

Regarding `O=c1[nH]c2ccccc2n1C1CCN(CCCC(c2ccc(F)cc2)c2ccc(F)cc2)CC1` [Pimozide], the half-inhibitory concentration (IC50) is 1.7 µM.

As for `CCN(CC)CCNc1ccc(CO)c2sc3ccccc3c(=O)c12` [Hycanthone], the IC50 amounted to 6 µM.

With `COc1ccc(CN2CCN(C(c3ccc(F)cc3)c3ccc(F)cc3)CC2)c(OC)c1OC` [Lomerizine Dihydrochloride], the IC50 was found to be 2.1 µM.

`Fc1ccc([C@@H]2CCNC[C@H]2COc2ccc3c(c2)OCO3)cc1` [Paroxetine Hydrochloride Hemihydrate]: the concentration for half-maximal inhibition (IC50) turned out to be 1.4 µM.

The assay is the same for the next values; noted with them: Zaire ebolavirus, HepG2, read-out: Max Effect HepG2.
Consider `Cc1nc(Nc2ncc(C(=O)Nc3c(C)cccc3Cl)s2)cc(N2CCN(CCO)CC2)n1` [Dasatinib], for which the Emax amounted to 94.1%.

In the case of `CN1CCN(CCCN2c3ccccc3Sc3ccc(Cl)cc32)CC1` [Prochlorperazine Edisylate], the Emax was 94.7%.

Regarding `CO[C@H]1C[C@H](O[C@H]2CC[C@]3(C=O)[C@H]4CC[C@]5(C)[C@@H](C6=CC(=O)OC6)CC[C@]5(O)[C@@H]4CC[C@]3(O)C2)O[C@H](C)[C@H]1O` [K-Strophanthin], the Emax amounted to 86.7%.

In the case of `CCN(CC)CCOc1ccc(/C(=C(\Cl)c2ccccc2)c2ccccc2)cc1` [Clomiphene Citrate], the Emax was determined as 93.4%.

Turning to `O=c1[nH]c2ccccc2n1C1CCN(CCCC(c2ccc(F)cc2)c2ccc(F)cc2)CC1` [Pimozide], the Emax came to 91%.

Consider `CCN(CC)CCNc1ccc(CO)c2sc3ccccc3c(=O)c12` [Hycanthone], for which the Emax was determined as 96.2%.

Take `COc1ccc(CN2CCN(C(c3ccc(F)cc3)c3ccc(F)cc3)CC2)c(OC)c1OC` [Lomerizine Dihydrochloride]: the Emax turned out to be 91.8%.

For the compound `CN(C)CCCN1c2ccccc2CCc2ccc(Cl)cc21` [Clomipramine Hydrochloride], the Emax stood at 89.7%.

As for `COc1ccc(CCN2CCC(Nc3nc4ccccc4n3Cc3ccc(F)cc3)CC2)cc1` [Astemizole], the Emax is 91.4%.

Turning to `CN1[C@@H]2CC[C@H]1C[C@@H](OC(c1ccccc1)c1ccccc1)C2` [Benztropine Mesylate], the Emax came to 94.3%.

`CN[C@H]1CC[C@@H](c2ccc(Cl)c(Cl)c2)c2ccccc21` [Sertraline Hydrochloride]: the Emax was found to be 95%.

For `Fc1ccc([C@@H]2CCNC[C@H]2COc2ccc3c(c2)OCO3)cc1` [Paroxetine Hydrochloride Hemihydrate], the Emax came out at 92%.

(Values after patent publication US8475804B2 (priority 2009, dated 2013).)
